This passage reports inhibition results from PubChem BioAssay AID1288 (Columbia University Molecular Screening Center, 2008).

The term inhibition denotes the change of the read-out against control, counted positive when it falls.

Structures are written as SMILES. Calls of active or inactive are those of the source. The rule behind the calls is not given here.

The assay is described as follows: E-selectin induction blockers, endothelial cells – imaging, retest plus dose response, cell count, confirmation (AID 1288).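 Note: 0% = stimulated vehicle wells and 100% = unstimulated vehicle wells.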 The following applies: human endothelial cells, TNFa-induced E-selectin, imaging; at 2 µM; active compounds read high.
As for `COCCN1CN(S(=O)(=O)c2ccccc2)c2nc3ccccc3nc21`, the inhibition is 2.89% (inactive).

`C=CCN1CCN(C(c2cc(OC)ccc2OC)c2nnnn2CC2CCCO2)CC1` (stereo not drawn): the inhibition is 31.2% (inactive).

With `O=c1c2cccnc2[nH]c(=S)n1CCCN1CCN(c2ccc(F)cc2)CC1`, the inhibition was 1.58% (inactive).

With `N#CCc1ccc(NS(=O)(=O)c2cccs2)cc1`, the inhibition was 7.74% (inactive).

For the compound `O=C(CSc1nnc(-c2cc(-c3cccs3)nc3ccccc23)o1)NC1CCCCC1`, the inhibition is 5.57% (inactive).

On to `CCOc1ccc(C)cc1-n1nc2ccccc2n1`, for which the inhibition is 34.6% (inactive).

Consider `Cc1nnc(SCC(=O)N(C)c2ccccc2)n1Cc1ccccc1`, for which the inhibition is 1.26% (inactive).

As to `CCOC(=O)c1ccccc1NC(=O)c1ccc(N(C)S(C)(=O)=O)cc1`, the inhibition was 15.2% (inactive).

With `COc1ccccc1CCNC(=O)c1cnccn1`, the inhibition was 16.6% (inactive).

Turning to `CCOC(=O)c1ccc(Nc2cc(C)nc(N3CCOCC3)n2)cc1`, the inhibition is 5.21% (inactive).

In the case of `O=c1c2c(n3nnnc3n1-c1ccccc1)-c1ccccc1CC21CCCC1`, the inhibition is -3.55% (inactive).

On to `O=C(CSc1ncnc2nc[nH]c12)Nc1ccccc1C(F)(F)F`, for which the inhibition was 30.5% (inactive).

For `CN1CCN(S(=O)(=O)c2ccc(NC(=O)c3ccc(F)cc3)cc2)CC1`, the inhibition is 5.58% (inactive).

Take `Cc1cc2cc(NC(=O)c3ccco3)ccc2[nH]1`: the inhibition was -3.69% (inactive).

As for `COC(=O)c1cc2c(s1)CS(=O)C2` (stereo not drawn), the inhibition is 14.6% (inactive).

As for `COc1ccc(OC)c(S(=O)(=O)N(C)CC(=O)Nc2ccc3c(c2)OCO3)c1`, the inhibition is 5.06% (inactive).

`OC(c1ccc2c(c1)OCO2)c1nccc2ccccc12` (stereo not drawn): the inhibition was 4.74% (inactive).

For the compound `CC(=O)c1cccc(NS(=O)(=O)N2CCCCC2)c1`, the inhibition was -4.42% (inactive).

With `O=c1ccc2ccc(OCc3nnc(-c4ccccc4Br)o3)cc2o1`, the inhibition is 2.48% (inactive).

For `Cc1c(Cl)cccc1N1C(=O)CC(N(O)c2ccccc2)C1=O` (stereo not drawn), the inhibition was 12.9% (inactive).

In the case of `COCCNC(=O)c1ccc(N(C)S(=O)(=O)c2ccc(OC)c(OC)c2)cc1`, the inhibition is 0.94% (inactive).

For the compound `COc1ccccc1CNC(=O)CSc1nnc2ccc(-c3cccnc3)nn12`, the inhibition was 2.18% (inactive).

As for `Cn1c(NCCN2CCCCC2)cc(=O)n(C)c1=O`, the inhibition was 22.7% (inactive).

In the case of `O=C(/C=C/c1ccccc1)N1CCC(Cc2ccccc2)CC1`, the inhibition was 9.46% (inactive).

As to `Cc1cc(NC(=O)CCC(=O)N(CC(=O)NCC2CCCO2)c2ccccc2C)no1` (stereo not drawn), the inhibition is 14.8% (inactive).

As for `CCCOc1ccc(C(=O)NCC(c2cccs2)N(C)C)cc1` (stereo not drawn), the inhibition was -0.69% (inactive).

In the case of `Fc1ccccc1SCc1nnc(-c2ccccc2Br)o1`, the inhibition was 9.24% (inactive).

`COc1ccc2c(c1)C1CC(C)(NC(=O)C1S(=O)(=O)c1ccc(F)cc1)O2` (stereo not drawn): the inhibition was 28.9% (inactive).

Consider `COc1ccc2c(c1)c1ncn(CCCN3CCOCC3)c(=O)c1n2C`, for which the inhibition is 1.07% (inactive).

On to `COc1ccccc1NC(=S)N(Cc1ccco1)Cc1cc2cccc(C)c2[nH]c1=O`, for which the inhibition is 30.6% (inactive).

For the compound `O=C(O)COc1ccc(/C=N/n2cnc3scc(-c4cccs4)c3c2=O)cc1`, the inhibition is 5.08% (inactive).

Turning to `CCc1n[nH]c2c1C(=O)CC(C)(C)C2`, the inhibition is 18% (inactive).

As to `O=C(/C=C/c1ccccc1)Nc1ncn[nH]1`, the inhibition was 5.62% (inactive).

On to `C#CCN1C(=O)C(O)(CC(=O)c2cccc(OC)c2)c2ccccc21` (stereo not drawn), for which the inhibition was 16% (inactive).

As for `Cc1oc(-c2cccs2)nc1CSCC(=O)N1CCC2(CC1)OCCO2`, the inhibition is 2.86% (inactive).

Take `CCCCc1c(O)nc(SCC(=O)Nc2ccc3c(c2)CCC3)[nH]c1=O`: the inhibition is 14.6% (inactive).

For `Cc1cccc(C(=O)NNC(=O)Nc2ccccc2)c1`, the inhibition is -2.06% (inactive).

As for `C/C(=N\NC(=O)CN(c1ccccc1Br)S(C)(=O)=O)c1ccc2c(c1)OCCO2`, the inhibition was 1.65% (inactive).

As for `Cc1cc(C)n2nc(C(=O)N(C)C(c3ccccc3)c3ccccc3)nc2n1`, the inhibition is 7.77% (inactive).

For the compound `Cc1ccc(C2(C)NC(=O)N(CCOc3ccccc3)C2=O)cc1` (stereo not drawn), the inhibition was 3.16% (inactive).

On to `CC(=O)c1ccc(NC(=S)N2CC(C)CC(C)C2)cc1` (stereo not drawn), for which the inhibition was -4.33% (inactive).

For the compound `Cc1ccc(C(=O)n2c(=S)nc3ccccn32)cc1`, the inhibition is 22.2% (inactive).

For `Cc1cc(S(=O)(=O)N2CCN(c3ccccc3O)CC2)c(C)s1`, the inhibition was 5.21% (inactive).

Take `CCCn1c(CN2CCN(c3cccc(Cl)c3)CC2)nc2c1c(=O)n(C)c(=O)n2C`: the inhibition is 7.73% (inactive).

Turning to `CCOC(=O)CCc1nc2ccccc2[nH]c1=O`, the inhibition was 15.7% (inactive).

Take `C=CCNC(=O)/C=C/c1cccs1`: the inhibition is -0.12% (inactive).

With `CCC(=O)Nc1nnc(-c2ccccn2)o1`, the inhibition was 14.7% (inactive).

As to `COc1ccc(C(c2nnnn2Cc2ccccc2)N2CCN(c3nc4ccccc4s3)CC2)cc1` (stereo not drawn), the inhibition was 2.21% (inactive).

Take `CCOC(=O)C1=C(c2ccccc2)N(C)C(=O)NC1c1ccc(O)c(OC)c1` (stereo not drawn): the inhibition is 8.42% (inactive).

Take `CCCCCn1c(SCC#N)nc2cc(C(=O)NCC3CCCO3)ccc2c1=O` (stereo not drawn): the inhibition was 7.32% (inactive).

For `COc1cccc(/C=N/NC(=O)c2c(-c3ccccc3)noc2C)c1`, the inhibition is 4.18% (inactive).

As to `Cc1cccc(NC(=S)Nc2ccccn2)c1C`, the inhibition is -0.54% (inactive).

As for `CCn1c(SCC(=O)NCc2ccco2)nnc1-c1ccc(N)cc1`, the inhibition is 10.3% (inactive).

Turning to `CS(=O)(=O)N(CC(=O)NCCC1=CCCCC1)C1CCCCC1`, the inhibition was -0.77% (inactive).

As for `CCOc1cc(N2CCOCC2)c(OCC)cc1NS(=O)(=O)c1ccc(Cl)s1`, the inhibition was 6.76% (inactive).

Consider `COc1cc(NC2c3ncccc3C(=O)N2Cc2ccco2)cc(OC)c1` (stereo not drawn), for which the inhibition is 7.75% (inactive).

Regarding `CCCCNc1nc(CC)c2c(c1C#N)CCCC2`, the inhibition is 4.98% (inactive).

On to `COc1ccc2c(c1OC)C(=O)OC2c1c(O)nc(SC)n(-c2ccccc2)c1=O` (stereo not drawn), for which the inhibition was 4.68% (inactive).

As to `CCCCN1C(=O)C2C3C=CC(C2C1=O)C1C2C(=O)N(CCCC)C(=O)C2C31` (stereo not drawn), the inhibition is 28.4% (inactive).

For `O=C(Nc1ccc2nsnc2c1)c1ccc2c(c1)OCO2`, the inhibition was 7.37% (inactive).

`O=C(/C=C\Nc1cccc(F)c1)c1cccs1`: the inhibition is -1.7% (inactive).

On to `Cc1nc2oc(C(=O)c3ccccc3)c(N)c2c2c1COC(C)(C)C2`, for which the inhibition is 0.22% (inactive).

In the case of `CC(C)CCNC(=O)C1CCN(c2nc3ccccc3o2)CC1`, the inhibition is 12.3% (inactive).

Turning to `CCC(=O)c1ccc(N2CCOCC2)c(F)c1`, the inhibition is 10.3% (inactive).

Take `COc1ccc(Nc2nc(C)cc(C)c2C#N)cc1OC`: the inhibition was 6.96% (inactive).

Take `Cc1ccc(-n2c(SCC(=O)Nc3ccc4c(c3)OCCO4)nnc2-c2ccco2)cc1`: the inhibition is 5.17% (inactive).

With `CC(C)C(=O)Nc1ccc(-c2nc3cccnc3o2)cc1`, the inhibition was 15.7% (inactive).

Consider `Cc1ccc(C(=O)c2c(NC(=O)c3ccccc3C)sc(C)c2C)cc1`, for which the inhibition was 4.34% (inactive).

On to `CCOC(=O)N1CCN(C(=O)C2CCN(S(=O)(=O)c3cc(OC)ccc3OC)CC2)CC1`, for which the inhibition is 1.55% (inactive).

Take `Cc1ccc(CNCC(O)(c2ccccc2)c2ccc(Cl)cc2)cc1` (stereo not drawn): the inhibition is 5.94% (inactive).

For `Cc1ccc(/C([O-])=C(/C(=S)NCc2ccccc2)[n+]2cccc(CO)c2)cc1[N+](=O)[O-]`, the inhibition is -5.81% (inactive).

Consider `COc1ccc(C2C(C#N)=C(SCC(=O)Nc3ccc(C)cc3)NC3=C2C(=O)CC(C)(C)C3)cc1` (stereo not drawn), for which the inhibition is 4.4% (inactive).

With `CC(C)Cn1cnc2c1c(=O)n(CC(=O)Nc1ccc3c(c1)OCO3)c(=O)n2Cc1ccccc1`, the inhibition is 14.6% (inactive).

Turning to `CC(Oc1ccc(Cl)cc1Cl)C(=O)N(Cc1ccco1)C1CCS(=O)(=O)C1` (stereo not drawn), the inhibition is 33.5% (inactive).

Turning to `Cn1c(SCc2ccc(C#N)cc2)nnc1-c1cccc(Cl)c1`, the inhibition is 7.7% (inactive).

As to `C=CCn1c(=O)c2ccccc2n2c(SCC(=O)N3CCCc4ccccc43)nnc12`, the inhibition was 6.51% (inactive).

`COc1cc(-c2nnc(COc3ccc4ccccc4c3)o2)cc(OC)c1OC`: the inhibition is 5.08% (inactive).

On to `O=C(Nc1ccc(F)cc1)N1CCOCC1`, for which the inhibition is 29.5% (inactive).

On to `O=C(c1ccccc1)N1CCN(c2ccccc2F)CC1`, for which the inhibition is 9.93% (inactive).

For the compound `COCCn1c(SCC(=O)c2ccc(Cl)cc2)nnc1C(C)C`, the inhibition was -5.2% (inactive).

For the compound `Cc1ccccc1OCCCC(=O)Nc1ccc(N2CCOCC2)cc1`, the inhibition is 4.18% (inactive).

With `CCCCCOC(=O)Cn1c(SCC(=O)Nc2ccccc2)nc2c1c(=O)[nH]c(=O)n2C`, the inhibition is -1.58% (inactive).

For the compound `C=CCN1C(c2ccccc2)=CS/C1=C(\C#N)c1nnc2n1CCCCC2`, the inhibition was 34% (inactive).

As to `O=C1c2cccc(OCC(=O)N3CCCc4ccccc43)c2CCN1Cc1ccc(Br)cc1`, the inhibition was -5.27% (inactive).

Consider `Cc1nc(=O)c(-c2ccccc2)c(C)n1-c1ccc(S(N)(=O)=O)cc1`, for which the inhibition was 42.4% (inactive).

Consider `O=C(NC1CCCCC1)C(c1cccs1)N(C(=O)c1ccco1)c1ccc2c(c1)OCCO2` (stereo not drawn), for which the inhibition is 8.94% (inactive).

As to `Cc1c(N=C/C=C2\N(C)c3ccccc3C2(C)C)c(=O)n(-c2ccccc2)n1C`, the inhibition was 1.21% (inactive).

In the case of `CC1=Nc2ccccc2/C1=C/c1c(N)n2c(S(=O)(=O)CC(C)C)nsc2nc1=O`, the inhibition is 2.29% (inactive).
